For one data set, the system named is brain tumor capillaries. The following applies: intracarotid infusion of LTC4; cited from earlier work.
Data set [1] has as its system RG-2 glioma. The experiment in a line: Blood volume in brain and tumor by graphic method using [14C] dextran. In kind it is in vivo, Wistar rats. The following applies: intracarotid bradykinin infusion. On the procedure: The blood volume for the quantitative examination of permeability was calculated with a graphic method using [^14 C] dextran (MW 70,000). The blood volume in normal brain tissue and tumors were 4.5 and 9.15 μ/g, respectively (FIG. 1). The slopes were the unidirectional transfer constants, the Ki values (μl/g/min), in the two groups. […] The tumor blood volume was almost twice that of the normal brain tissue, but the brain and tumor blood volumes were not altered by intracarotid bradykinin infusion.
RMP-7 (at 1.5 μg/kg) or vehicle (control) was infused into the right carotid artery at a volume rate of 0.8 ml over 15 minutes (i.e. 53 μ/min). In blood volume studies, 100 μCi/kg of [^14 C] dextran was injected as an intravenous bolus at either 5, 10, 14 or 14.5 minutes after the start of the intracarotid infusion to make the circulation time of dextran 10, 5, 1, 0.5 minutes, respectively. […] A peristaltic withdrawal pump was used to withdraw femoral arterial blood at a constant rate of 0.083 ml/min immediately after the injection of the tracer for the determination of serum radioactivity. […]
The blood volume for the quantitative examination of permeability was calculated with a graphic method using [^14 C] dextran. […] Ki was similar in these experiments whether calculated using the graphic method or the method described by Ohno (25) and Ziylan (26).

For data set [2], the system named is RG-2 glioma. Kind of data set: Microscopic analysis with intravenously injected horseradish peroxidase (HRP). The format is in vivo, Wistar rats. On the procedure: Microscopic analysis was performed using intravenously injected horseradish peroxidase (HRP) as described in (22). After rat preparation as previously described, bradykinin (10 μg/kg/min in saline) or saline as a control was injected into the fight carotid artery for 15 minutes. Five minutes after the start of the intracarotid infusion, 20 mg/100 g of horseradish peroxidase (HRP) was injected by an intravenous bolus. Ten minutes after the HRP injection, rats were perfused with a mixture of 2% glutaraldehyde and 2% formaldehyde in 0.1 sodium phosphate buffer solution at pH 7.4 through the heart. After fixation, the brains were removed and cut at 40 μm thickness on a vibratome. The sections were preincubated for 15 minutes at room temperature in the medium consisting of 10 ml 0.05 M-Tris-HCl buffer (pH 7.4), 3,3'-diaminobenzidine tetrahydrochloride and 0.02% hydrogen peroxide (Sigma). The sections were trimmed down to the areas of interests, post-fixed for 2 hours in 2% osmium tetroxide with 0.1M sodium phosphate, dehydrated, and embedded in plastic. Plastic sections 1 μm thick were observed under light microscopy.

For data set [3] the following is noted: rat, in vivo; cited from earlier work.
Details of data set [4]: species or system rats. The following applies: rat, in vivo. The protocol:
At infusion rates greater than 20 μg/kg/min the systemic blood pressure in the rats was reduced.
(§1) [^14 C] AIB and [^14 C] dextran were used for quantitative autoradiographic examination of regional permeability. One week after tumor implantation, the rats were again anesthetized and a polyethylene (PE-10) catheter was inserted retrograde throughout the external carotid artery to the common carotid artery bifurcation ipsilateral to the tumor. The external carotid artery was then ligated. One femoral artery was cannulated to monitor systemic blood pressure and the other femoral artery was cannulated to withdraw arterial blood. Body temperature was maintained at […] and arterial blood gas levels, blood pressure, hematocrit were monitored. Animals with abnormal physiological parameters were eliminated. After rat preparation, bradykinin (10 μg/kg/min in saline) or saline as control was infused into the right carotid artery at a rate of 53.3 μ/min for 15 minutes. Five minutes after the start of the intracarotid infusion, 100 μCi/Kg of the tracer was injected as an intravenous bolus. A peristaltic withdrawal pump was used to withdraw femoral arterial blood at a constant rate of 0.083 ml/min immediately after injection of tracer for determination of serum radioactivity. Fifteen minutes after the start of intracarotid infusions, the animals were killed by decapitation and the brains were rapidly removed and frozen.
One week after tumor implantation, the rats were again anesthetized and a polyethylene (PE-10) catheter was inserted retrograde through the external carotid artery to the common carotid artery bifurcation ipsilateral to the tumor. The external carotid artery was then ligated. […] Body temperature was maintained at 37° C. and arterial blood gases, blood pressure, and hematocrit were monitored. […]
RMP-7 infused at a rate greater than 1.0 μg/kg/min (dissolved in phosphate buffer, pH 7.4) reduced systemic blood pressure in rats when given either intravenously or into the carotid artery. […] Physiological parameters, which included arterial blood pH, PaO2, were also monitored.

The subject of data set [5] is RG-2 glioma. Kind of data set: Evans blue (EB-albumin) staining of tumor and brain after intracarotid infusion. The format is in vivo, Wistar rats. The following applies: intracarotid bradykinin infusion; 2 ml/kg of 2% EB i.v. The protocol:
After the intracarotid bradykinin infusion, the rat was perfused with 200 ml of phosphate buffer through the heart to wash out the remaining EB from the vessels. The brains were removed immediately and cut as coronal sections.
Since EB binds to serum albumin (MW 67,000) in blood and distributes with albumin in vivo, EB staining in the tissue indicates the distribution of albumin (4). In order to observe the extravasated EB and not the EB remaining in the vessels in the brain, the blood from the brain was washed out by perfusing the rats with phosphate buffer from the heart.
Six rats were used to examine whether RMP-7 could selectively deliver albumin to tumors. Evans blue (EB) was injected intravenously instead of radiolabeled tracers. After the preparation of rats, 2 ml/kg of 2% EB was injected intravenously instead of radiolabeled tracers. After the intracarotid RMP-7 (n=3) or vehicle (n=3) infusion, the rat was perfused with 200 ml of phosphate buffer through the heart to wash out the remaining EB from the vessels. The brains were removed immediately and cut as coronal sections.

Data set [6] has as its system RG-2 glioma. Kind of data set: Regional permeability (unidirectional transfer constant Ki) by quantitative autoradiography after intracarotid infusion. The format is in vivo, Wistar rats. On the procedure: An experimental brain tumor model was made using female Wistar rats and RG-2 glioma cells. The RG-2 glioma cell line was maintained in a monolayer culture in F12 medium with 10% calf serum. Female Wistar rats, each weighing 150 to 250 gm were anesthetized with intra peritoneal pentobarbital (30 mg/kg). Glial tumors were implanted into the right hemisphere by intracerebral injections of 1×10^5 RG-2 glioma cells in five μl of 1.2% methyl cellulose (F12 medium). One week after tumor implantation, the rats were used for the brain tumor model.
The rats were divided into two groups: a bradykinin group treated with intracarotid infusion of 10 […] of bradykinin or the control group treated with intracarotid infusion of saline. The effect of intracarotid infusion of bradykinin was compared to saline infusions by statistical analysis of the Ki values using ANOVA and Students T-Tests.
as §1
Autoradiography was conducted as follows: the frozen brains were mounted onto pedestals with M-1 embedding matrix, and 20 μm coronal sections were cut into a cryotome. The sections were thawmounted onto cover slips, and autoradiograms were generated by coexposing the sections on Kodak XAR-5 film with tissue-calibrated ^14 C standards for 2 weeks. The sequential section was stained with hematoxylin for correlation of areas of histologically verified tumor with autoradiograms. The regional radioactivities were measured in tumor, brain surrounding the tumor (BST; areas at around 2 mm distance from the border of the tumor), ipsilateral cortex to tumor (ipsi cortex), contralateral cortex (contra cortex), ipsilateral white matter (ipsi WM), contralateral WM (contra WM), ipsilateral basal ganglia (ipsi BGG), and contralateral BGG (contra BGG). Quantitative analysis of the regional radioactivity was performed using a computer (Macintosh II) with a scanner (UMAX UC630) and the software, Image 1.45 (NIH). […]
The frozen brains were mounted onto pedestals with M-1 embedding matrix, and 20 μm coronal sections were cut with a cryotome. The sections were thaw-mounted onto cover slips, and autoradiograms were generated by co-exposing the sections on Kodak XAR-5 film with tissue-calibrated ^14 C standards for 2 weeks. The sequential section was stained with hematoxylin for correlation of areas of histologically verified tumor with autoradiograms. The regional radioactivity was measured in tumor, brain surrounding the tumor (BST; areas within 2 mm distance from the border of the tumor), ipsilateral cortex to tumor, contralateral cortex, ipsilateral white matter (WM), contralateral WM, ipsilateral basal ganglia (BG), and contralateral BG. […]

The subject of another data set is normal brain capillary. The following applies: in vivo; cited from earlier work.
The subject of data set [7] is brain capillary endothelial cells. The following applies: nanomolar concentrations of bradykinin; cited from earlier work.
The mark [8] stands for this setting: tumor, intracarotid bradykinin 10 μg/kg/min vs saline.

The text below walks through data of patent US5527778A, “Method for selective opening of abnormal brain tissue capillaries” (priority 1995, dated 1996).

Residues, ends and D or L forms follow the SMILES beside them.

For the molecule `CCCCC/C=C\C\C=C/C=C/C=C/[C@@H](SC[C@H](NC(=O)CC[C@H](N)C(=O)O)C(=O)NCC(=O)O)[C@@H](O)CCCC(=O)O` [LTC4, leukotriene C4], in the data set on brain tumor capillaries, the “Effect on capillary permeability” value is listed as “selectively increases the permeability in brain tumor capillaries without affecting the permeability in normal brain capillaries”.
As for `NC(N)=NCCC[C@H](NC(=O)[C@H](Cc1ccccc1)NC(=O)[C@@H]1CCCN1C(=O)[C@H](CO)NC(=O)[C@H](Cc1ccccc1)NC(=O)CNC(=O)[C@@H]1CCCN1C(=O)[C@@H]1CCCN1C(=O)[C@@H](N)CCCN=C(N)N)C(=O)O` [bradykinin] (H-RPPGFSPFR-OH), the “Brain and tumor blood volumes, change by infusion” value with RG-2 glioma [1] is on record as “not altered”. Also, in the data set on RG-2 glioma [2] (normal brain, bradykinin 10 μg/kg/min intracarotid), the “HRP extravasation in normal brain” value is recorded as “no extravasation of HRP between cells”. In addition, in the data set on RG-2 glioma [2] (tumor, bradykinin 10 μg/kg/min intracarotid 15 min), the “HRP stain in tumor” value was “well recognized in the extracellular space between tumor cells”. Besides, the “Degradation of bradykinin in rats, time” value in data set [3] is given as “several hours”. In [4], the “Effect on systemic blood pressure” value is listed as “did not alter systemic blood pressure” and the “Infusion rate at which systemic blood pressure was reduced” value is reported as “greater than 20 μg/kg/min”. Besides, the Evans blue staining entry in the data set on RG-2 glioma [5] is reported as “well recognized in the tumor but not in the normal brain”. Besides, the “Ki value of the brain surrounding tumor (BST) for [14C] AIB” value in the data set on RG-2 glioma [6] (BST, 2 mm from tumor border, intracarotid bradykinin 10 μg/kg/min) was 3.50 ± 1.29 µL/g/min. The “Ki values of brain regions without tumor, treated vs control” value with RG-2 glioma [6] (normal brain regions, intracarotid bradykinin 10 μg/kg/min) is “no significant differences”. For the same molecule, in the data set with RG-2 glioma [6] (tumor, intracarotid bradykinin 10 μg/kg/min for 15 min), the “Ki value of the tumors for [14C] AIB (MW 103)” value was found to be 25.91 ± 6.78 µL/g/min. Moreover, the “Ki value of the tumors for [14C] dextran (MW 70,000)” value in the data set on RG-2 glioma [6] (tumor, intracarotid bradykinin 10 μg/kg/min for 15 min, mean±SD) worked out at 17.84 ± 1.00 µL/g/min. Also, in the data set on RG-2 glioma [6] (setting [8]), the “Ki of tumors for [14C] AIB, fold higher than control group” value amounted to 1.8 fold and the “Ki of tumors for [14C] dextran, fold higher than control group” value is reported as 12 fold. The “HRP around normal brain capillary at high dose” value in the data set on normal brain capillary is “caused intravasation of HRP around the normal brain capillary”. Also, the “Stimulation of uptake of Lucifer yellow” value in data set [7] was 40%.
Regarding `C[C@H](CS)C(=O)N1CCC[C@H]1C(=O)O` [captopril], the “Systemic pressure when intravenous captopril infusion was used to enhance bradykinin effect” value in [4] (iv) is “hypotension occurred”.
